# Measured values taken from ChEMBL document CHEMBL3797042, “Hybrid Pyrrole-Imidazole Alkaloids from the Sponge Agelas sceptrum” (J Nat Prod, 2016).
# pIC50: −log10 of the molar value. Active and inactive are the calls of the source. No cut-off for these calls is given here.
# Assays:
# [1] = system: Micrococcus luteus; assay: Antimicrobial activity against Micrococcus luteus after 24 hrs by microdilution method; format: functional
# [2] = system: MCF7; assay: Cytotoxicity against human MCF7 cells after 5 days by WST-1 assay; format: functional, cell-based; conditions: for IC50: mcf7
# [3] = system: KB 3-1; assay: (§1) Cytotoxicity against human KB3-1 cells after 5 days by WST-1 assay; format: functional, cell-based
# [4] = as §1; format: functional, cell-based, KB 3-1; conditions: for IC50: kb 3-1; for IC90 / pIC50: Homo sapiens, KB 3-1, 120 h; for pIC50: read-out: IC50
# [5] = system: Pseudomonas aeruginosa; assay: Antimicrobial activity against Pseudomonas aeruginosa after 24 hrs by microdilution method; format: functional, organism-based
# [6] = system: Candida albicans; assay: Antimicrobial activity against Candida albicans after 24 hrs by microdilution method; format: functional, organism-based
# [7] = system: Klebsiella pneumoniae; assay: Antimicrobial activity against Klebsiella pneumoniae after 24 hrs by microdilution method; format: functional
# [8] = system: Staphylococcus aureus; assay: Antimicrobial activity against methicillin-sensitive Staphylococcus aureus after 24 hrs by microdilution method; format: functional, organism-based
# [9] = system: Staphylococcus aureus; assay: Antimicrobial activity against methicillin-resistant Staphylococcus aureus after 24 hrs by microdilution method; format: functional, organism-based
# [10] = Cytotoxicity against human FS4-LTM cells after 24 hrs by WST-1 assay; format: cell-based; conditions: for IC90: human, 24 h
# [11] = system: L929; assay: (§2) Cytotoxicity against mouse L929 cells after 5 days by WST-1 assay; format: cell-based; conditions: for IC50: l929; for IC90: mouse, l929, 120 h
# [12] = as §2; format: cell-based; conditions: mouse, L929 cells
Compound,MIC [1],IC90 [2],IC50 [2],IC90 [3],IC50 [4],MIC [5],MIC [6],MIC [7],MIC [8],MIC [9],IC50 [10],IC90 [10],IC50 [11],IC90 [11],"IC90 ([2]; Homo sapiens, MCF7, 120 h)","pIC50 ([2]; Homo sapiens, MCF7, 120 h, read-out: IC50)",IC90 [4],pIC50 [4],"pIC50 ([11]; Mus musculus, L929, 120 h, read-out: IC50)",IC90 at 120 h [12]
Nc1ncc(/C=C/CNC(=O)c2cc(Br)c(Br)[nH]2)[nH]1 [OROIDIN],inactive,inactive,Not Active,inactive,Not Active,inactive,inactive,inactive,inactive,inactive,Not Active,Not Active,Not Active,Not Active,,,,,,
Nc1ncc([C@@H]2[C@@H](CNC(=O)c3cc(Br)c[nH]3)[C@H](CNC(=O)c3cc(Br)c[nH]3)[C@H]2c2cnc(N)[nH]2)[nH]1,32 µM,,,,,inactive,inactive,32 µM,inactive,inactive,Not Active,Not Active,,,≥ 238 µM,3.62,2390 µM,4.10,3.71,≥ 238 µM
C[n+]1cnc2[nH]c(=O)n(-c3nc(N)[nH]c3[C@@H]3[C@@H](CNC(=O)c4cc(Br)c[nH]4)[C@H](CNC(=O)c4cc(Br)c[nH]4)[C@H]3c3cnc(N)[nH]3)c2c1N,inactive,inactive,Not Active,inactive,Not Active,inactive,inactive,inactive,inactive,inactive,Not Active,Not Active,Not Active,Not Active,,,,,,
NCCC(=O)c1cccc2c1N[C@H](CNC(=O)c1cc(Br)c(Br)[nH]1)[C@@H](c1cnc(N)[nH]1)O2,inactive,inactive,Not Active,,,inactive,inactive,inactive,inactive,inactive,Not Active,Not Active,Not Active,Not Active,,,≥ 130 µM,4.36,,
Nc1ncc([C@@H]2[C@@H](CNC(=O)c3ccc[nH]3)[C@H](CNC(=O)c3cc(Br)c[nH]3)[C@H]2c2cnc(N)[nH]2)[nH]1,inactive,inactive,Not Active,,,inactive,inactive,inactive,inactive,inactive,Not Active,Not Active,Not Active,Not Active,,,92 µM,4.54,,
